Data reported in US10138271B2, “Native and agonist CTL epitopes of the MUC1 tumor antigen” (The United States of America, as represented by the …, priority 2012, dated 2018).

How the values were obtained:
HLA-A2 molecules [1] = molecular target: T1, HLA-A2 molecules (Homo sapiens, UniProt P04439, D140Y/D185E/D98H/E176V/E277Q/G131W/G231S/I119V/I121R/I166T/I218V/L300P/L318F/N151K/N90K/P208A/P217A/Q86G/Q94H/R138H/R169H/T345S); experiment: Stability of peptide/HLA-A2 complexes (percentage of remaining complexes over time); type: binding; details: time points 0, 2, 4, 6, 8, 10 h
T1 construct: endogenous in cells; host or cells: T2 / T2A2 cells (174CEM-T2, transport deletion mutant)
Procedure: The stability of the peptide/HLA-A2 complexes of the analogs and native peptides were analyzed by determining the percentage of the remaining complexes on HLA-A2 molecules at different time points (0, 2, 4, 6, 8, and 10 h).
The stability of the peptide/HLA-A2 complexes of the analogs and native peptides was analyzed by determining the percentage of the remaining complexes on HLA-A2 molecules at different time points (0, 2, 4, 6, 8, and 10 h).

[2] = test system: MUC1-C-specific T-cell lines; experiment: IFN-γ release by MUC1-C-specific T-cell lines stimulated with peptide-pulsed autologous B cells (ELISA); type: cell-based, human; details: for IFN-γ: T-cell line generated with and stimulated by the same peptide, APC:T 2:1, 24 hour supernatant; for IFN-γ production by agonist peptide-specific T-cell line, agonist versus native peptide: at each peptide concentration, FIG. 1A-C
Procedure: Supernatants of T cells stimulated for 24 h with peptide-pulsed autologous DCs or autologous EBV-transformed B cells in IL-2-free medium at various peptide concentrations were screened for secretion of IFN-γ by ELISA kit (BioSource International, Camarillo, Calif.). Results were expressed in pg/mL.
To evaluate the specificity of these T-cell lines, an IFN-γ release assay was performed using irradiated autologous B cells pulsed with the corresponding peptide. T cells were stimulated with irradiated autologous B cells pulsed with corresponding peptide at an APC:T cell ratio of 2:1. T cells were used at a concentration of 5×10^5/mL. 24 hour culture supernatants were collected and screened for secretion of IFN-γ. T-1-P1172(1Y), T-1-P1177(10V), and T-2-P1240(1Y) cell lines produced higher levels of IFN-γ compared to T-cell lines generated using corresponding native peptides (Table 2).
Studies were then conducted to compare the ability of the native peptides and the agonist peptides, at various concentrations, to activate the agonist peptide-specific T cells.
An additional T-cell line was then established from the PBMCs of another patient (patient 3) with colon cancer from the same clinical trial described above, using P1177 and P1177(10V), designated T-3-P1177 and T-3-P1177(10V), respectively.

HLA-A2 molecules [3] = molecular target: T1, HLA-A2 molecules; experiment: Peptide binding to HLA-A2: upregulation of HLA-A2 expression on T2/T2A2 cells by flow cytometry; details: for T2 Binding (mean fluorescence intensity): peptide 12.5 μg/mL; for T2A2 Binding (mean fluorescence intensity): peptide 25 μg/mL
Procedure: Single-color flow cytometric analysis has been previously described in Guadagni et al., Cancer Res., 50: 6248-6255 (1990). Briefly, cells were washed 3 times with cold Ca2^+- and Mg2^+-free Dulbecco's phosphate-buffered saline (PBS), and then stained for 1 h at 4° C. using FITC-conjugated monoclonal antibodies anti-HLA-A2,28 (One Lambda, Inc., Canoga Park, Calif.), anti-CD3, anti-CD4, and anti-CD8 (BD Biosciences, San Jose, Calif.). Mouse IgG2a, k FITC (BD Biosciences) was used as isotype control. The cells were then washed 3 times with cold Ca2^+- and Mg2^+-free PBS, resuspended in the same buffer, and immediately analyzed using a FACScan (Becton Dickinson, Franklin Lakes, N.J.) and CellQuest software (BD Biosciences). Results were generated from data gathered from 10,000 live cells and expressed as percent-positive cells and mean fluorescence intensity (MFI). The MFI value was collected in log scale and used to express levels of fluorescence determined by measuring the average for all cells in the fluorescence dot plot.

T-VNTR-3 T cell line = experiment: IFN-γ production by VNTR-3-specific T cell line stimulated with agonist or native peptide; type: cell-based, human; details: APC:T 3:1, 24 hours
Procedure: (§1) T-VNTR-3 (VNTR-3 agonist peptide-specific T cell line) and T-VNTR-5 (VNTR-5 agonist peptide-specific T cell line) were separately cultured at a concentration of 1×10^5 cells/mL. The ratio of APC:T cells was 3:1. The agonist or native peptides were used at various concentrations (see Tables 14 and 15). The supernatents were collected after 24 hours, and the amount of IFN-γ was determined. The VNTR-3- and VNTR-5-specific T cell lines stimulated with agonist peptides produced higher levels of IFN-γ as compared to stimulation with native peptides (see Tables 14 and 15).

T-VNTR-5 T cell line = experiment: IFN-γ production by VNTR-5-specific T cell line stimulated with agonist or native peptide; type: cell-based, human; details: APC:T 3:1, 24 hours
Procedure: as §1

YLIALAVCQV [P1177(10V)]
Stability of peptide/HLA-A2 complexes, analog versus native peptide (HLA-A2 molecules [1]): greater avidity for class I molecules than the native peptide P1177 at each time point | IFN-γ [2]: >1,000 pg/mL | IFN-γ production by agonist peptide-specific T-cell line, agonist versus native peptide [2]: greatest level of IFN-γ production

YLIALAVCQC [Peptide P1177]
IFN-γ [2]: 666.4 pg/mL

GLFDEYLEMV [NGEP (P703)]
T2 Binding (mean fluorescence intensity) (HLA-A2 molecules [3]): 481.93 MFI | T2A2 Binding (mean fluorescence intensity) (HLA-A2 molecules [3]): 485.3 MFI

YLSYTNPAV [P1240(1Y)]
Stability of peptide/HLA-A2 complexes, analog versus native peptide (HLA-A2 molecules [1]): No differences | IFN-γ [2]: >1,000 pg/mL | IFN-γ production by agonist peptide-specific T-cell line, agonist versus native peptide [2]: greatest level of IFN-γ production

ALAIVYLIAL [Peptide P1172]
IFN-γ [2]: 158.3 pg/mL

SLSYTNPAV [Peptide P1240]
IFN-γ [2]: 437.3 pg/mL

HLFGYSWYK [CAP-7]
T2 Binding (mean fluorescence intensity) (HLA-A2 molecules [3]): 109.1 MFI | T2A2 Binding (mean fluorescence intensity) (HLA-A2 molecules [3]): 83.8 MFI

YLAPPAHGV [VNTR-3]
Stability of peptide/HLA-A2 complexes, analog versus native peptide (HLA-A2 molecules [1]): greater avidity for class I molecules than the native peptides | IFN-γ (T-VNTR-3 T cell line; peptide 1.56 μg/mL): 304.9 pg/mL | IFN-γ (T-VNTR-3 T cell line; peptide 3.13 μg/mL): 457.6 pg/mL | IFN-γ (T-VNTR-3 T cell line; peptide 6.25 μg/mL): 685.3 pg/mL | IFN-γ (T-VNTR-3 T cell line; peptide 12.5 μg/mL): 766.1 pg/mL | IFN-γ (T-VNTR-3 T cell line; peptide 25 μg/mL): 771.5 pg/mL

STAPPAHGV [VNTR-2]
IFN-γ (T-VNTR-3 T cell line; peptide 1.56 μg/mL): 29.0 pg/mL | IFN-γ (T-VNTR-3 T cell line; peptide 3.13 μg/mL): 75.8 pg/mL | IFN-γ (T-VNTR-3 T cell line; peptide 6.25 μg/mL): 127.0 pg/mL | IFN-γ (T-VNTR-3 T cell line; peptide 12.5 μg/mL): 203.0 pg/mL | IFN-γ (T-VNTR-3 T cell line; peptide 25 μg/mL): 261.0 pg/mL

YLDTRPAPV [VNTR-5]
Stability of peptide/HLA-A2 complexes, analog versus native peptide (HLA-A2 molecules [1]): greater avidity for class I molecules than the native peptides | IFN-γ (T-VNTR-5 T cell line; peptide 1.56 μg/mL): 205.1 pg/mL | IFN-γ (T-VNTR-5 T cell line; peptide 3.13 μg/mL): 322.0 pg/mL | IFN-γ (T-VNTR-5 T cell line; peptide 6.25 μg/mL): 452.9 pg/mL | IFN-γ (T-VNTR-5 T cell line; peptide 12.5 μg/mL): 496.2 pg/mL | IFN-γ (T-VNTR-5 T cell line; peptide 25 μg/mL): 543.7 pg/mL

APDTRPAPG [VNTR-4]
IFN-γ (T-VNTR-5 T cell line; peptide 1.56 μg/mL): 19.8 pg/mL | IFN-γ (T-VNTR-5 T cell line; peptide 3.13 μg/mL): 53.2 pg/mL | IFN-γ (T-VNTR-5 T cell line; peptide 6.25 μg/mL): 63.1 pg/mL | IFN-γ (T-VNTR-5 T cell line; peptide 12.5 μg/mL): 109.3 pg/mL | IFN-γ (T-VNTR-5 T cell line; peptide 25 μg/mL): 117.9 pg/mL

YLAIVYLIAL [P1172(1Y)]
Stability of peptide/HLA-A2 complexes, analog versus native peptide (HLA-A2 molecules [1]): No differences | IFN-γ [2]: 605.0 pg/mL | IFN-γ production by agonist peptide-specific T-cell line, agonist versus native peptide [2]: greatest level of IFN-γ production
